Experimental data reported in ChEMBL document CHEMBL5050850, “Compositions and methods of using the same for treatment of neurodegenerative and mitochondrial disease” (2020).

Experiments:
[1] = tested on: HeLa; experiment: Cytotoxicity against human HeLa MKYP cells assessed as cell death at 25 uM treated with FCCP/oliogmycin and measured DAPI staining method assay relative to control; assay type: toxicity, cell-based
[2] = tested on: HeLa; experiment: Cytotoxicity against human HeLa MKYP cells assessed as cell death at 25 uM and measured DAPI staining method assay relative to control; assay type: toxicity, cell-based
[3] = Induction of mitophagy in human HeLa MKYP cells treated with FCCP/oligomycin for 6 hrs and measured by FACS analysis; assay type: functional, cell-based
[4] = Ratio of highest compound concentration with no observable mitotoxicity to EC50 of compound to induce mitophagy in human HeLa MKYP cells; assay type: functional
[5] = tested on: HeLa; experiment: Cytotoxicity against human HeLa MKYP cells assessed as percentage of DAPI-positive cells at 50 uM and measured by DAPI staining method; assay type: toxicity, cell-based
[6] = Induction of mitophagy in human HeLa MKYP cells treated at 6.3 uM with FCCP/oligomycin for 6 hrs and measured by FACS analysis relative to control; assay type: functional

| EC50 [3] | Structure (SMILES) | Activity [1] | Activity [2] | Ratio [4] | Activity [5] | Activity [6] | Activity ([6]; 6 h, 6.3 µM) |
| --- | --- | --- | --- | --- | --- | --- | --- |
| 1.1 µM | C[C@H]1CCc2ccccc2[C@H]1Nc1ncnc2[nH]c(C(F)(F)F)cc12 | 12% | 6.45% | 7.74 | 12% |  |  |
|  | COc1ccc2c(c1)CCCC2Nc1ncnc2[nH]c(C(F)(F)F)cc12 (configuration not stated) |  |  |  | 95.5% | 29.8% |  |
| 17.3 µM | CC(=O)N1CCC(Nc2ncnc3[nH]c(C(F)(F)F)cc23)c2ccccc21 (configuration not stated) | 6.92% | 2.69% |  | 6.9% |  |  |
|  | CCCCNc1ncnc2[nH]c(C(OCC)C(F)(F)F)cc12 (configuration not stated) |  |  |  | 15.8% | 17.9% |  |
| 13.3 µM | CO[C@H]1COc2ccccc2[C@H]1Nc1ncnc2[nH]c(C(F)(F)F)cc12 | 3.555% | 2.49% |  | 3.6% |  |  |
| 15.1 µM | O[C@@H]1Cc2ccccc2[C@H]1Nc1ncnc2[nH]c(C(F)(F)F)cc12 | 7.59% | 2.35% | 1.66 | 7.6% |  |  |
| 1.1 µM | OC[C@@H]1CCc2ccccc2[C@H]1Nc1ncnc2[nH]c(C(F)(F)F)cc12 | 59.535% | 27% | 7.25 | 59.5% |  |  |
|  | CCCCNc1ncnc2[nH]c(-c3ccnn3C)cc12 |  |  |  | 94.6% | 15% |  |
| 4 µM | COc1ccc2c(c1)[C@@H](Nc1ncnc3[nH]c(C(F)(F)F)cc13)CCC2 | 3.18% | 1.18% |  | 3.2% |  |  |
| 6.3 µM | CO[C@@H]1COc2ccccc2[C@H]1Nc1ncnc2[nH]c(C(F)(F)F)cc12 | 10.645% | 2.61% |  | 10.6% |  |  |
| 0.81 µM | CN(C)[C@H]1CCc2ccccc2[C@@H]1Nc1ncnc2[nH]c(C(F)(F)F)cc12 | 79.29% | 4.33% |  | 79.3% |  |  |
|  | FC(F)(F)c1cc2c(NC3CCc4ccccc43)ncnc2[nH]1 (stereo in doubt; 17) |  |  |  | 2.3% |  | 14.8% |
| 1.6 µM | CO[C@@H]1COc2ccccc2[C@@H]1Nc1ncnc2[nH]c(C(F)(F)F)cc12 | 12.11% | 3.4% |  | 12.1% |  |  |
|  | FC(F)(F)c1cc2c(NC3CCCc4ccccc43)ncnc2[nH]1 (stereo in doubt; 16) |  |  |  | 4.5% |  | 10.1% |
|  | FC(F)(F)c1cc2c(NC3COc4ccccc43)ncnc2[nH]1 (configuration not stated) |  |  |  | 39.7% | 52.5% |  |
|  | CC(Nc1ncnc2[nH]c(C(F)(F)F)cc12)c1ccccc1 (configuration not stated) |  |  |  | 2.4% | 88.4% |  |
|  | CCCCNc1ncnc2[nH]c(C(F)(F)F)cc12 |  |  |  | 4.6% | 42.3% |  |
| 4.38 µM | Oc1ccc2c(c1)CCC[C@H]2Nc1ncnc2[nH]c(C(F)(F)F)cc12 | 11% | 3.32% |  | 11% |  |  |
| 3.48 µM | OC[C@H](Nc1ncnc2[nH]cnc12)c1ccccc1 |  |  |  | 14.5% |  |  |
| 10.6 µM | COc1ncc(CNc2ncnc3[nH]c(C(F)(F)F)cc23)cn1 |  |  |  | 5.8% |  |  |
| 1.4 µM | FC(F)(F)c1cc2c(N[C@H]3COc4ccccc43)ncnc2[nH]1 |  |  |  | 22.8% |  |  |
|  | CCCCNc1ncnc2[nH]c(C)cc12 |  |  |  | 15.4% | 43.4% |  |
| > 50 µM | c1coc(CNc2ncnc3[nH]c(C4CCC4)nc23)c1 |  |  |  | 3% |  |  |
| 1.69 µM | c1ccc2c(c1)OCC[C@@H]2Nc1ncnc2[nH]cnc12 |  |  |  | 17% |  |  |
| > 50 µM | O[C@H]1Cc2ccccc2[C@H]1Nc1ncnc2[nH]c(C(F)(F)F)cc12 | 21.2% | 2.75% |  | 21.2% |  |  |

| EC50 [3] | Structure (SMILES) | Activity [1] | Activity [2] | Ratio [4] | Activity [5] | Activity [6] | Activity ([6]; 6 h, 6.3 µM) |
| --- | --- | --- | --- | --- | --- | --- | --- |
|  | FC(F)(F)c1cc2c(NC3CCc4ccccc43)ncnc2[nH]1 (stereo in doubt; 18) |  |  |  | 1.7% |  | 14.3% |
| 4.38 µM | c1ccc2c(c1)CC[C@@H]2Nc1ncnc2[nH]cnc12 |  |  |  | 16.2% |  |  |
|  | FC(F)(F)c1cc2c(NCc3ccccc3)ncnc2[nH]1 |  |  |  | 50.4% | 35.1% |  |
| > 50 µM | FC(F)(F)c1cc2c(NC3COCc4ccccc43)ncnc2[nH]1 (configuration not stated) |  |  |  | 42.9% |  |  |
|  | CCCCNc1ncnc2[nH]c(CC)cc12 |  |  |  | 93.4% | 14% |  |
|  | CCCCNc1ncnc2[nH]c(-c3ccccc3)cc12 |  |  |  | 90% | 52% |  |
| > 50 µM | CCCCNc1ncnc2[nH]c(C3CCC3)nc12 |  |  |  | 6.1% |  |  |
| > 50 µM | C[C@@H](Nc1nccc2[nH]cnc12)c1ccccc1 |  |  |  | 7.6% |  |  |
| > 50 µM | c1ccc(C2(Nc3ncnc4[nH]cnc34)CC2)cc1 |  |  |  | 13.4% |  |  |
| 1.98 µM | c1ccc2c(c1)OCC[C@H]2Nc1ncnc2[nH]c(C3CC3)cc12 | 17.3% | 7.26% |  | 17.3% |  |  |
| 21.4 µM | FC(F)(F)c1cc2c(NC3CCN(Cc4ccccc4)CC3)ncnc2[nH]1 |  |  |  | 43.9% |  |  |
|  | CC(C)(Nc1ncnc2[nH]c(C(F)(F)F)cc12)c1ccccc1 |  |  |  | 5.6% | 17% |  |
|  | CCCCNc1ncnc2[nH]c(CC(F)(F)F)cc12 |  |  |  | 24.8% | 13.9% |  |
| 5.6 µM | FC(F)(F)c1cc2c(N[C@H]3CCOc4ccccc43)ncnc2[nH]1 |  |  |  | 37.7% |  |  |
| > 50 µM | COc1cc(CNc2ncnc3[nH]c(C4CC4)nc23)ccn1 |  |  |  | 7.1% |  |  |
| 6.9 µM | CC(C)[C@@H](Nc1ncnc2[nH]c(C(F)(F)F)cc12)c1cncnc1 |  |  |  | 6.8% |  |  |
| 3.24 µM | FC(F)(F)c1cc2c(NC3CCOc4ccccc43)ncnc2[nH]1 (configuration not stated) |  |  |  | 22.3% |  |  |
| 6.3 µM | CC(Nc1ncnc2[nH]c(C3CC3)nc12)c1ccccc1 (configuration not stated) |  |  |  | 18.3% |  |  |
| 10.8 µM | COc1ccccc1CNc1ncnc2nc[nH]c12 |  |  |  | 12.4% |  |  |
| 5.5 µM | OC[C@H]1CCc2ccccc2[C@@H]1Nc1ncnc2[nH]c(C(F)(F)F)cc12 | 30.87% | 9.83% |  | 30.9% |  |  |
| 9 µM | O[C@@H]1Cc2ccccc2[C@@H]1Nc1ncnc2[nH]c(C(F)(F)F)cc12 | 35.6% | 5.5% |  | 35.6% |  |  |
| 4 µM | CO[C@H]1COc2ccccc2[C@@H]1Nc1ncnc2[nH]c(C(F)(F)F)cc12 | 15.865% | 3.66% |  | 15.9% |  |  |
|  | FC(F)(F)c1cc2c(NC3(c4ccccc4)CC3)ncnc2[nH]1 |  |  |  | 80.5% | 20.8% |  |
| 14.7 µM | OC[C@H](Nc1ncnc2[nH]c(C(F)(F)F)cc12)c1ccccc1 |  |  |  | 30.4% |  |  |

| Structure (SMILES) | EC50 [3] | Activity [1] | Activity [2] | Ratio [4] | Activity [5] | Activity [6] | Activity ([6]; 6 h, 6.3 µM) |
| --- | --- | --- | --- | --- | --- | --- | --- |
| C[C@@H](Nc1ncnc2[nH]c(C(F)(F)F)cc12)c1cncnc1 | 21.6 µM |  |  |  | 22.9% |  |  |
| C[C@H](Nc1ncnc2[nH]c(C(F)(F)F)cc12)c1cncnc1 | 3.1 µM |  |  |  | 23.7% |  |  |
| c1ncc(CNc2ncnc3[nH]cnc23)cn1 | 4.4 µM |  |  |  | 5.3% |  |  |
